Results on 2 molecules are retold here after patent publication US11077151B2, “Ascaroside treatment of autoimmune and inflammatory diseases” (California Institute of Technology, priority 2016, dated 2021).

The subject of assay [1] is IL-1β secretion, bone marrow-derived mouse dendritic cells. The assay is described as follows: IL-1β secretion by TNF-α stimulated bone marrow dendritic cells (ELISA). The format is cell-based. As to conditions: different concentrations of ascr #7. As for the experimental part:
(§1) Bone marrow was extracted from femurs of C57BL/6 mice (6-12 weeks of age). These mice were euthanized by CO2 inhalation and their femurs were removed. After removing the remaining flesh from the bone, they were cut at the metaphysis. Bone marrow was flushed out using a syringe filled with RPMI. The extracted marrow was further broken down by resuspension with syringe. The mixture was centrifuged and the pellet was re-suspended in RPMI. […] 20 ng of GM-CSF was added to each well. At day 3, and every 3 days thereafter, the media was replaced. Cells were used for experiments between day 7-9.
(§2) Bone marrow dendritic cells were collected between day 7-9 of culture. Cells were washed twice and counted. Ascr #7 in water or RPMI were placed in corresponding wells, and are allowed to dry. 10^6 cells were then plated in each well in a 24 well culture plate. Cells were left to incubate with ascr #7 for 5 minutes. Following the brief incubation, different TNFα was added to the wells. These bone marrow dendritic cells were then cultured at 37° C. for 18-72 hours. Cells were collected via the pellet generated by centrifuge. The supernatant was also preserved. EBioscience ELISA kits was used to determine the concentration of different cytokines present in each well.

In assay [2] the test system is ovalbumin model of murine asthma (C57BL/6 mice). Put plainly: Ovalbumin model of murine asthma. The format is in vivo, mouse. The procedure:
Adult C57BL/6 mice were sensitized by administering 2 ug OVA (Sigma-Aldrich) and 1 mg alum (Thermo) with 50 ng ascr #7 or saline, via intraperitoneal injection, on Day 0 and 14. On day 24, the mice were challenged with intranasal administration of saline containing 100 μg OVA, under isoflurane anesthesia. Histologic sections were stained with H&E or PAS to score for eosinophilia, goblet cell metaplasia, and airway hyper-reactivity. Mice were also placed in a computer controlled small animal ventilator (SCIREQ) to score for airway hyper-reactivity following methacholine challenge. […] Animals with asthma have higher resistance of flow, which would be represented as higher “RL” values in FIG. 3B. […] Lungs were collected, postmortem, and then sectioned and stained to show the presence of eosinophils and mucus. […] In FIG. 3C, the asthmatic mouse lung, here labeled “Control” has a large number of mucus and eosinophils that surround the bronchioles and occupy the alveolar space; wherein the thick barriers would prohibit oxygen from easily diffusing.

Assay [3] deals with IL-6 secretion, bone marrow-derived mouse dendritic cells. Put plainly: IL-6 secretion by TNF-α stimulated bone marrow dendritic cells (ELISA). The class given is cell-based. The note with it: different concentrations of ascr #7. The procedure: as §1, §2
A general note: An ELISA detects its analyte on a solid surface through an enzyme-linked reagent.

For assay [4], the system named is T cell transfer model of colitis, Rag -/- mice. The assay is described as follows: T cell transfer model of colitis (IBD). The class given is in vivo, mouse. As to conditions: 300 ng ascr #7 i.p. every 3 days, day 14 to 28. The procedure: A T cell transfer model of colitis where 10^6CD4+ T cells were transferred to adult Rag −/− mice was used, and either saline or 300 ng ascr #7 were administered via intraperitoneal injection every 3 days between day 14 and day 28. On day 28, the mice were euthanized and colon analysis was performed. n=3 mice per group. […] The normal mouse colon is long, skinny, and has discrete fecal pellets. The diseased mouse colon, with IBD, has a shortened, dilated colon, with diarrhea instead of discrete fecal pellets.

For assay [5], the system named is NOD/ShiLtJ mouse model of Type 1 Diabetes. Put plainly: NOD/ShiLtJ mouse model of Type 1 Diabetes. The format is in vivo. As to conditions: 100 ng ascr #7 i.p. three times a week. As for the experimental part:
The NOD/ShiLtJ (Jackson Laboratories) mouse model of Type 1 Diabetes was used These mice typically develop hyperglycemia around 17-18 weeks of life. Either saline or 100 ng ascr #7 was administered three times a week via intraperitoneal injection. Blood glucose levels were determined in the same mouse over time, via the collected of tail vein blood (as shown in FIG. 4A) at multiple time points. […] 8 mice were injected with saline and 8 mice were injected with ascr #7, as described above.

Another assay addresses T1, IL-6 receptor (Homo sapiens, UniProt P08887).
T1 construct: host or cells: human patients (endogenous receptor)
T1 sequence (P08887 20-468): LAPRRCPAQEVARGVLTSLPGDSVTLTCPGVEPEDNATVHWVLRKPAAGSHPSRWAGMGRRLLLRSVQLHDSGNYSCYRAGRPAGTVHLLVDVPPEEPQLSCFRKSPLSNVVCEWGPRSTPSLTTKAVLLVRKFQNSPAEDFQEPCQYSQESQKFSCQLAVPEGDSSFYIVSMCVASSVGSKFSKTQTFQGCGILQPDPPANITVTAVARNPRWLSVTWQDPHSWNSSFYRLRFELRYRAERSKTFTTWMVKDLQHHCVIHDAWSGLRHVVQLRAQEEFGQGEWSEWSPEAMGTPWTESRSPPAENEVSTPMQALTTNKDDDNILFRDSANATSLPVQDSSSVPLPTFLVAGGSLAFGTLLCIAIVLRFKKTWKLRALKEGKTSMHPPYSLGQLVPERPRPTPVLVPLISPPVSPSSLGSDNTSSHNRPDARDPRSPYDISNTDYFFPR
As to conditions: cited from earlier work.

The mark [6] stands for this setting: ovalbumin model, 50 ng ascr #7 i.p.

Take `C[C@H](CC/C=C/C(=O)O)O[C@@H]1O[C@@H](C)[C@H](O)C[C@H]1O` [ascr #7]: the IL-1β level result in assay [1] (dendritic cells not stimulated with TNF-α, FIG. 2 left) is on record as “very low levels of IL-1β”. In assay [1] (dendritic cells stimulated with TNF-α, FIG. 2 right), the “secreted IL-1β level” value is listed as “reduces these levels significantly”. The “lung histology (boundaries between bronchioles and alveolar space; eosinophils and mucus)” value in assay [2] (50 ng ascr #7 i.p. Day 0 and 14, stained lung sections, FIG. 3C) is “thin boundaries between the bronchioles and the alveolar space, comparable to the normal mice”. For the same molecule, the “resistance of air flow (RL)” value in assay [2] (50 ng ascr #7 i.p. Day 0 and 14 with OVA/alum, methacholine challenge, FIG. 3B) is on record as “low resistance of air flow, with comparable levels to normal mice”. In assay [2] (setting [6]), the “development of airway hyper-reactivity” value was “reduces”, the development of eosinophilia result is listed as “reduces” and the “development of goblet cell metaplasia” value is given as “reduces”. The IL-6 level result in assay [3] (dendritic cells not stimulated with TNF-α, FIG. 1 left) is given as “very low levels of IL-6”. In assay [3] (dendritic cells stimulated with TNF-α, FIG. 1 right), the “secreted IL-6 level” value is “reduces these levels significantly”. Moreover, in assay [4], the “development of abnormal lumen dilation” value is “markedly reduces”, the “development of colon shortening” value is on record as “markedly reduces” and the development of diarrhea entry is on record as “markedly reduces”. In assay [4] (FIG. 5), the “colon appearance on day 28” value was “normal appearing colon, which is long, skinny, and contains discrete fecal pellets”. Besides, in assay [5] (throughout 18 weeks, FIG. 4B), the “blood glucose levels, individual mice” value is listed as “significantly reduced blood glucose levels”. In assay [5] (week 18, FIG. 4C), the “blood glucose levels, group average vs untreated group” value was “significantly lower blood glucose levels”. The conversion to hyperglycemia entry in assay [5] (NOD mice) is “delays conversion to hyperglycemia”.
Regarding “Tocilizumab: a humanized anti-IL-6 receptor antibody”, the “clinical activity of atopic dermatitis” value with IL-6 receptor (3 patients with severe atopic dermatitis, Navarini et al. 2011) is “decreased clinical activity”. Further, the “relapse rates, neuropathic pain and general fatigue, neuromyelitis optica” value with IL-6 receptor (after one year of treatment, Araki et al. 2014) is reported as “decreased”. In the assay with IL-6 receptor (at 6 months, Espinoza et al. 2015), the “manifestations of eosinophilic fasciitis” value was “remission of both articular and cutaneous manifestations”. The “disease remission, severe multisystemic microscopic polyangiitis” value with IL-6 receptor (one patient, Berti et al. 2015) is “complete and sustained disease remission”. Further, in the assay with IL-6 receptor (patients, Mesquida et al. 2014), the treatment of uveitis entry was “effective”. The “inflammatory response and quality of life measures, Cogan's syndrome” value with IL-6 receptor (person, relapsed after prednisone, Shibuya et al. 2013) is listed as “successfully improved”.
